Values quoted from earlier work, collected in US20110052685A1, “GASTRIC RETENTIVE PHARMACEUTICAL COMPOSITIONS FOR IMMEDIATE AND EXTENDED RELEASE OF ACETAMINOPHEN” (DEPOMED, INC., priority 2009, published 2011).

Half-life (elimination, from Rawlins et al., 1977): (2.7) hr
1st Order Elimination Constant K (from Rawlins et al., 1977): 0.257 h⁻¹
Oral Bioavaiability F (from Rawlins et al., 1977): 0.89
Volume of Distribution V (from Rawlins et al., 1977): 78800 mL
Absorption Half-life (oral immediate release, fed mode): (0.76) hr
1st Order Absorption Constant (under fed mode - with food) ka (oral immediate release, from Divoll et al., 1982): 0.912 h⁻¹
SMILES: CC(=O)Nc1ccc(O)cc1 [acetaminophen, N-(4-hydroxyphenyl)acetamine]
